In ChEMBL document CHEMBL1201862, “PubChem BioAssay data set” (2004):
Active and inactive are the calls of the source.

Experiments:
[1] = Luminescence Cell-Based Dose Response HTS to Identify Inhibitors of 5'UTR Stem-Loop Driven Prion Protein mRNA Translation in H4 Neuroglioblastoma Cells. [Related pubchem assays: 1827 (Project Summary), 1813 (Primary HTS)]; type: functional
[2] = alpha-synuclein stem-loop luciferase translation blockers – H4 neuroglioma cells, luminescence, confirmation (AID 1988); type: functional, cell-based
[3] = luciferase reporter signal suppression in cells – H4 neuroglioma cells, luminescence, dose response (AID 1990); type: functional, cell-based
[4] = test system: INS1; assay: INS-1E survival protection against cytokine death – cell-based, luminescence, retest, dose response (AID 449756); type: functional; settings: Rattus norvegicus;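 further: cell death triggered by IL-1 beta plus TNF-alpha plus IFN-gamma mixture; protective hits raise ATP signal compared with cytokine alone wells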
[5] = biological target: Cytochrome P450 2D6 (Homo sapiens, UniProt P10635);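 further: CYP2D6 member of a cytochrome P450 panel assay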
[6] = Trypanosoma cruzi growth suppression in host cells – NIH3T3 host cells, beta-gal luminescence, confirmation (AID 2044); type: functional, cell-based;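 further: intracellular parasites grown in NIH/3T3 mouse fibroblasts as host cells; luminescent beta-galactosidase reporter signal from transgenic T. cruzi replicating inside host cells; inhibitors lower the luminescence signal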
[7] = NIH3T3 cell viability loss – ATP luminescence, mouse fibroblasts, counter-screen, dose response (AID 2010); type: functional, cell-based;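 further: cells exposed to compound for about 90 hours before reading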
[8] = biological target: Cytochrome P450 2C9 (Homo sapiens, UniProt P11712)
[9] = biological target: Cytochrome P450 2C19 (Homo sapiens, UniProt P33261); assay: Cytochrome panel assay with activity outcomes. Panel member name: p450-cyp2c19 Compounds with AC50 equal or less than 10 uM are considered active; type: functional
[10] = test system: Streptococcus; assay: GAS UMAA2166 growth inhibition – luminescence, BacTiterGlo, counter-screen for streptokinase expression inhibitor project, dose response (AID 1915); type: functional, organism-based;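 further: potency for reduction of bacterial viability or growth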
[11] = test system: Streptococcus sp. 'group A'; assay: Streptococcus pyogenes SK(-)GAS viability under kanamycin – luminescence, BacTiterGlo, confirmation, counter-screen for streptokinase expression inhibitor project, dose response (AID 1900); type: functional, organism-based

Cytochrome P450 2C9, sequence (P11712 whole entry): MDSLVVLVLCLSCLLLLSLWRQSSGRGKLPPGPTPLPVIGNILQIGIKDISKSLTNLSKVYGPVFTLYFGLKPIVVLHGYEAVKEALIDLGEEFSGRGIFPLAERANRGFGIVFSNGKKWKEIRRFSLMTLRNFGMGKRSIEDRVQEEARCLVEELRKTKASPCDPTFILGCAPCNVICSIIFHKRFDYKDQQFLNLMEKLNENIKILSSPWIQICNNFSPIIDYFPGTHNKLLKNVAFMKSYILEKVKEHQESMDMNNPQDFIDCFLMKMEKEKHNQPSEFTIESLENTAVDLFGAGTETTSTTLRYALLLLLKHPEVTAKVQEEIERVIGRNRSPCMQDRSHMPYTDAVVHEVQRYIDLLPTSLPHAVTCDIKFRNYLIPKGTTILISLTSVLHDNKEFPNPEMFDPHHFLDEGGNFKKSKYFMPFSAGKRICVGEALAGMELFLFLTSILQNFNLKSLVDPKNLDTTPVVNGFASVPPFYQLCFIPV
Cytochrome P450 2C19, sequence (P33261 whole entry): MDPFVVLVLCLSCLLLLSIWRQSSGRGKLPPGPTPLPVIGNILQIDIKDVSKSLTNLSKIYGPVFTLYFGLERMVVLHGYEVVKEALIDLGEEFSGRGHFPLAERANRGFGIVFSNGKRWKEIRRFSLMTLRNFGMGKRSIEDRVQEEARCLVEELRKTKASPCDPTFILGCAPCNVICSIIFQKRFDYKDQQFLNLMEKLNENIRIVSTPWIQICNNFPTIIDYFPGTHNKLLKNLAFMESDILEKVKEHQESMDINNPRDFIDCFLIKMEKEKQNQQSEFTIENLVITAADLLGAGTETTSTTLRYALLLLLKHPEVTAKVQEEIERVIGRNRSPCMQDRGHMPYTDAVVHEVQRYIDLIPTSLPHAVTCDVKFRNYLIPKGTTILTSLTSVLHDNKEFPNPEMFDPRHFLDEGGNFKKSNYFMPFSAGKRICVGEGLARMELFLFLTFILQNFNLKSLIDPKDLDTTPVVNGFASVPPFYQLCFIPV
Cytochrome P450 2D6, sequence (P10635 whole entry): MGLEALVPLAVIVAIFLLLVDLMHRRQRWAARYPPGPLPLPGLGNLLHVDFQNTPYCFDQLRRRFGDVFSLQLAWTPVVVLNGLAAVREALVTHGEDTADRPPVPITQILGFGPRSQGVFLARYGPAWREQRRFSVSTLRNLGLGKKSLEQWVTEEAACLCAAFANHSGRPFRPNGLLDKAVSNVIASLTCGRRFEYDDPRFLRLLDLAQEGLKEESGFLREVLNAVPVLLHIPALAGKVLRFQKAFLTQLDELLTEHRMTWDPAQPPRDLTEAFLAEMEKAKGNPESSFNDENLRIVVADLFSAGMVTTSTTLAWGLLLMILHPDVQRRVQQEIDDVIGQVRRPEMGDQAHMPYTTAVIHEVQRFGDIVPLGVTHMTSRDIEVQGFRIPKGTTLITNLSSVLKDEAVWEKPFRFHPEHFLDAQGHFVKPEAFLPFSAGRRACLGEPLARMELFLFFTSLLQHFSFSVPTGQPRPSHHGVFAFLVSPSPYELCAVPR

COc1ccc(CNC(=O)C(C)Sc2nc3ccccc3c(=O)n2CCCN2CCOCC2)cc1 (stereo unspecified)
EC50 [1]: > 120 µM (not active) | EC50 [2]: > 120 µM (not active) | EC50 [3]: 23.9 µM (active)

COc1cc(C(=O)NC(=S)NNC(=O)c2cnccn2)cc(OC)c1OC
AC50 [4]: 1.27 µM (active)

N#Cc1cccc(NC(=O)N2CCCC3(CCN(C(=O)c4ccncc4)CC3)C2)c1
AC50 [5]: 25.1 µM (inconclusive)

Fc1cccc(Cl)c1-c1nnc2ccc3ccccc3n12
AC50 [4]: 10 µM (active)

NC(=O)c1[nH]cnc1N
EC50 [6]: > 30 µM (not active) | EC50 [7]: 4.94 µM (active)

COc1cccc2c1OC1(C)CC2NC(=O)N1Cc1ccccc1 (stereo unspecified)
EC50 [1]: 7.38 µM (active) | EC50 [2]: 16.1 µM (active) | EC50 [3]: 21.6 µM (active)

c1ccc(CCc2cccnc2)nc1
AC50 [5]: 7.94 µM (inconclusive)

COCCn1c(=O)c(C)nc2cnc(Oc3ccc(OC)cc3)nc21
AC50 [8]: 20 µM (inconclusive) | AC50 ([9]; read-out: AC50): 39.8 µM (inconclusive)

COc1ccc(OCCSc2nc[nH]n2)cc1
AC50 [8]: 22.4 µM (inconclusive)

CCCN(CCC)C(=S)NC(=O)c1ccc(Cl)cc1Cl
AC50 [5]: 10 µM (inconclusive)

COc1cccc(CC2(CO)CCCN(Cc3ccc(CN4CCCCC4)s3)C2)c1 (stereo unspecified)
EC50 [6]: 0.253 µM (active) | EC50 [7]: 9.85 µM (active)

COc1cccc(Nc2ncc3nc(-c4cccs4)c(=O)n(C[C@H]4CCCO4)c3n2)c1
AC50 [5]: 15.8 µM (inconclusive)

Cc1ccc2cc(CN(Cc3ccco3)C(=O)NC3CCCCC3)c(O)nc2c1C
EC50 [1]: 16.4 µM (active) | EC50 [2]: 13.6 µM (active) | EC50 [3]: 15.9 µM (active)

CC(=O)n1cc([C@H]2C=C(C(=O)N3CCN(Cc4ccccc4)CC3)O[C@@H](OCc3ccc(CO)cc3)C2)c2ccccc21
EC50 [6]: 0.435 µM (active) | EC50 [7]: > 30 µM (not active)

CN(C)CCO[C@@H](c1ccc(Cl)cc1)c1ccccn1 [ROTOXAMINE]
AC50 [5]: 12.6 µM (inconclusive) | AC50 [9]: inconclusive

CCc1c2c(nc3ccc(OC)cc13)COC2
AC50 [5]: 20 µM (inconclusive) | AC50 ([9]; read-out: AC50): 20 µM (inconclusive)

COc1cc2c3cc1Oc1cc(ccc1O)C[C@@H]1c4c(cc(OC)c(O)c4Oc4ccc(cc4)C[C@H]3[N+](C)(C)CC2)CC[N+]1(C)C
AC50 [9]: inconclusive

O=c1cc(N2CCCCC2)c(-c2ccccc2)nn1Cc1ccc(F)cc1
EC50 [6]: 2.17 µM (active) | EC50 [7]: 9.08 µM (active)

O=C(Cn1ncc2c(=O)oc3ccccc3c21)N1CCCc2ccccc21
EC50 [1]: 6.05 µM (active) | EC50 [2]: > 120 µM (not active) | EC50 [3]: > 120 µM (not active)

O=C1CC(c2ccc3c(c2)OCO3)CN1 (stereo unspecified)
AC50 ([9]; read-out: AC50): 39.8 µM (inconclusive)

CCN(CC)c1ccc2c(Cl)cc(=O)oc2c1
AC50 [8]: 31.6 µM (inconclusive)

COc1ncc2nc(-c3cccs3)c(=O)n(Cc3ccc(F)cc3)c2n1
AC50 [5]: 0.398 µM (inconclusive)

O=C(CON1C(=O)c2ccccc2C1=O)c1ccccc1
AC50 [8]: 6.31 µM (inconclusive)

Cc1ccc(C(=O)Nc2cc3c(oc2=O)CCCC3=O)cc1
AC50 [5]: 0.01 µM (inconclusive)

COc1ccc(-c2ccc([C@H]3[C@@H]4C=CCC[C@@]4(C)C(=O)N3Cc3ccccc3)c(F)c2)cc1
AC50 [4]: 13.2 µM (active)

CN(Cc1ccco1)c1ncnc2ccc(-c3ccccc3C(F)(F)F)cc12
AC50 [8]: 1 µM (inconclusive)

Clc1ccccc1-c1nc(N2CCNCC2)c2ccccc2n1
AC50 [5]: 31.6 µM (inconclusive)

Cc1cc(C)cc(N(C(=O)C2CCCC2)C2C=CS(=O)(=O)C2)c1 (stereo unspecified)
AC50 [8]: 35.5 µM (inconclusive) | AC50 ([9]; read-out: AC50): 17.8 µM (inconclusive)

COc1ccc(OC)c(-c2nc(CN3CCCCC3c3cccnc3)c(C)o2)c1 (stereo unspecified)
EC50 [6]: 2.02 µM (active) | EC50 [7]: > 60 µM (not active)

COc1cccc(-n2c(CN3CCN(c4cccc(C)c4)C(C)C3)nc3ccc([N+](=O)[O-])cc3c2=O)c1 (stereo unspecified)
EC50 [6]: 1.91 µM (active) | EC50 [7]: > 60 µM (not active)

Clc1ccccc1-c1nccc(NCCN2CCOCC2)n1
AC50 [5]: 12.6 µM (inconclusive)

CCN(CC)CC#CCC(O)(c1ccccc1)C1CCCC1 (stereo unspecified)
EC50 [6]: 0.52 µM (active) | EC50 [7]: > 60 µM (not active)

O=C(N=Nc1c(O)[nH]c2ccc(Br)cc12)c1cc(-c2cccs2)nc2ccccc12
EC50 [1]: 16.6 µM (active) | EC50 [2]: 9.7 µM (active) | EC50 [6]: 1.41 µM (active) | EC50 [7]: > 60 µM (not active) | EC50 [3]: > 120 µM (not active)

CCN(CC)C(=O)C1CC(=O)N(c2ccc(OC)cc2)C1c1ccc(OC)cc1 (stereo unspecified)
AC50 ([9]; read-out: AC50): 39.8 µM (inconclusive)

O=C(N/N=C/c1ccc([N+](=O)[O-])o1)c1ccc2c(c1)OCO2
EC50 [6]: 0.172 µM (active) | EC50 [7]: > 30 µM (not active)

CS(=O)(=O)NCCSCc1c(Cl)cccc1Cl
EC50 [6]: 36.9 µM (active) | EC50 [7]: > 60 µM (inconclusive)

COc1ccc(Cc2noc(CN3CCCN(C4Cc5ccccc5C4)CC3)n2)cc1OC
EC50 [6]: 1.3 µM (active) | EC50 [7]: > 60 µM (not active)

CCCn1c(-c2cccc([N+](=O)[O-])c2)nc2c1c(=O)[nH]c(=O)n2Cc1ccccc1
EC50 [1]: > 120 µM (not active) | EC50 [2]: > 120 µM (not active) | EC50 [3]: 17.5 µM (active)

Cc1cc(C)c2c(ccc3cccc[n+]32)c1.[O-][Cl+3]([O-])([O-])[O-]
AC50 [4]: 4.61 µM (active)

COc1cc(C(=O)NCC(=O)N/N=C(C)\C=C\c2ccccc2)cc(OC)c1OC
EC50 [1]: 24.9 µM (active) | EC50 [2]: > 120 µM (not active) | EC50 [3]: > 120 µM (not active)

Cc1ccccc1NC(=O)NCC1CCN(Cc2cccc(Cl)c2)CC1
EC50 [6]: 1.14 µM (active) | EC50 [7]: > 30 µM (not active)

O=C(CCc1ccc(S(=O)(=O)NC2CCCCC2)cc1)N(Cc1ccccc1)Cc1ccccc1
AC50 [5]: 12.6 µM (inconclusive)

COc1ccc2[nH]c(C)c(CCN(Cc3cccs3)C(S)=Nc3ccc(F)cc3)c2c1
EC50 [6]: 4.21 µM (active) | EC50 [7]: > 60 µM (not active)

COc1ccc(CN2CCCC(CO)(Cc3ccc(F)cc3)C2)cc1C (stereo unspecified)
EC50 [6]: 0.64 µM (active) | EC50 [7]: 9.58 µM (active)

COc1ccccc1N1CCN(c2nc(C)nc3c2oc2ccccc23)CC1
EC50 [1]: 0.842 µM (active) | EC50 [2]: 0.193 µM (active) | EC50 [3]: 10.3 µM (active)

Cc1cc(C)n(-c2nc(NC(C)(C)C)nc(NC(C)(C)C)n2)n1
EC50 [10]: 1.72 µM (active) | AC50 [8]: 8.91 µM (inconclusive) | EC50 [11]: 0.694 µM (active) | AC50 [4]: 3.14 µM (active) | AC50 [9]: inconclusive

Cc1cccc(C(=O)N[C@H](C(=O)Nc2nc3ccc(S(C)(=O)=O)cc3s2)C(C)C)c1
EC50 [1]: > 120 µM (not active) | EC50 [2]: > 120 µM (not active) | EC50 [3]: > 120 µM (not active)

CC(=O)NC(C)c1cc(Cl)c2cccnc2c1O (stereo unspecified)
AC50 [4]: 4.08 µM (active)

COC(=O)[C@@]1(Cc2ccc(F)cc2)[C@H]2c3cc(C(=O)N(C)C)n(CCCNc4ccc(C(F)(F)F)cc4Cl)c3C[C@H]2CN1C(=O)c1ccccc1
AC50 ([9]; read-out: AC50): 25.1 µM (inconclusive)

C/C(=N\Nc1nc(-c2ccccn2)nc2ccccc12)c1ccc(F)cc1
EC50 [1]: 3.74 µM (active) | EC50 [2]: 8.26 µM (active) | AC50 [4]: 41.9 µM (active) | EC50 [3]: 9.76 µM (active)

CC(C)c1ccc(Cn2ccc3c4c(N)nc(NC5CC5)nc4ccc32)cc1
AC50 ([9]; read-out: AC50): 31.6 µM (inconclusive)

CN1c2ccc([N+](=O)[O-])cc2N(C)C1(C)c1ccccc1 (stereo unspecified)
EC50 [6]: 2.85 µM (active) | EC50 [7]: > 60 µM (not active)

CCC/C=C(\CCC)C(NC(=O)Oc1ccc(F)cc1)c1ccc(C(=O)OC)cc1 (stereo unspecified)
AC50 [8]: 39.8 µM (inconclusive)

Cc1noc(/C=C/N(C)C)c1S(=O)(=O)N1CCCC(C(=O)NC2CCCCC2)C1 (stereo unspecified)
EC50 [6]: 0.484 µM (active) | EC50 [7]: 6.5 µM (active)

O=C(Nc1ccc([N+](=O)[O-])cn1)c1cc(-c2cccc(Cl)c2)nc2ccccc12
EC50 [6]: 0.809 µM (active) | EC50 [7]: > 30 µM (not active)

Cc1c(CCO)c(=O)n(C)n1C(=O)c1ccc(F)cc1
AC50 [5]: 22.4 µM (inconclusive)

CC1CCN(C(NC(=O)c2ccco2)C(=O)c2ccccc2)CC1 (stereo unspecified)
AC50 [5]: 15.8 µM (inconclusive)

Cc1c(C(=O)N(Cc2ccccc2)C(C)C)oc2ccc(S(=O)(=O)N3CCOCC3)cc12
AC50 [4]: 48 µM (active)

CC(=O)OC[C@@H]1O[C@H](C/C=N\O[C@@H](C)c2cn([C@H]3COC[C@H]3O)nn2)C=C[C@@H]1OC(C)=O
AC50 [9]: inconclusive

CCN(CC)c1ccc(/N=C/c2cc(Br)ccc2O)cc1
EC50 [6]: 4.39 µM (active) | EC50 [7]: > 60 µM (inconclusive)

Cc1cccc(N(C)S(=O)(=O)c2ccc3[nH]c(=O)c(=O)[nH]c3c2)c1
AC50 ([9]; read-out: AC50): 20 µM (inconclusive)

O=c1c(Cc2ccccc2)c(O)nc2n1CCS2
AC50 [8]: 14.1 µM (inconclusive) | AC50 ([9]; read-out: AC50): 14.1 µM (inconclusive)
